# Test results taken from US9643964B2, “3-(2-aminopyrimidin-4-yl)-5-(3-hydroxypropynyl)-1H-pyrrolo[2,3-C]pyridine derivatives as NIK inhibitors for the treatment of cancer” (Janssen Pharmaceutica NV, priority 2013, dated 2017).
# pEC50, pIC50: −log10 of the molar value.
# Legend:
# [1] = test system: LP-1 cells; assay: Biological Assay C: antiproliferative activity on LP-1 cells (CellTiter-Glo); assay type: cell-based, human; details: Homo sapiens, LP-1, 72 h, 72 hr treatment; averaged values
# Method in brief: (§1)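 CellTiter-Glo luminescence after 72 h exposure, blank (cells read at compound addition) subtracted, growth expressed as % of untreated control; duplicate wells. Suspension cells in RPMI/10% FCS, 2,000–6,000 cells/well, 0.3% DMSO.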
# [2] = test system: P-IKKα levels in L363 cells; assay: Biological Assay B: effect of compounds on P-IKKα levels in L363 cells; assay type: cell-based; details: Homo sapiens, L-363, averaged values, read-out: IKKα Cellular IC50
# Method in brief: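 L363 cells pre-incubated 24 h with 1 μg/ml stock BAFF, then treated 2 h with compounds (8-point, 1:3 dilutions, 1% DMSO) at 37° C; P-IKKα in lysates measured by sandwich immunoassay. Blank (10 μM ADS125117) subtracted; IC50 from sigmoidal fit of % inhibition of MG132/BAFF control.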
# [3] = test system: JJN-3 cells; assay: Biological Assay C: antiproliferative activity on JJN-3 cells (CellTiter-Glo); assay type: cell-based, human; details: Homo sapiens, JJN-3, 72 h, 72 hr treatment; averaged values
# Method in brief: as §1
# [4] = test system: L-363 cells; assay: Biological Assay C: antiproliferative activity on L-363 cells (CellTiter-Glo); assay type: cell-based, human; details: Homo sapiens, L-363, 72 h, 72 hr treatment; averaged values
# Method in brief: as §1
# [5] = molecular target: T1, Recombinant Human NF-kappaB-Inducing Kinase (NIK/MAP3K14) (Homo sapiens, UniProt Q99558); assay: Biological Assay A2: inhibition of auto-phosphorylation of recombinant human NIK/MAP3K14 (AlphaScreen); assay type: biochemical; details: auto-phosphorylation; averaged over all measurements on all batches; read-out: αscreen IC50
# Method in brief: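 GST-tagged NIK/MAP3K14 (0.2 nM) auto-phosphorylation with 25 microM ATP in 50 mM Tris pH 7.5, 5 mM MgCl2, 1% DMSO; 1 h at 25° C. Phospho-IKK Ser176/180 detected by AlphaScreen; blank-subtracted % inhibition fitted sigmoidally vs log concentration for IC50.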
# [6] = molecular target: T1, Recombinant Human NF-kappaB-Inducing Kinase (NIK/MAP3K14); assay: Biological Assay A: inhibition of recombinant human NIK/MAP3K14 activity (MBP phosphorylation, Mesoscale); assay type: biochemical; details: averaged over all measurements on all batches; read-out: Biochemical (MSD MBP) IC50
# Method in brief: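 10 nM NIK with 25 μM ATP on MBP-coated plates in Tris pH 7.5 buffer with MgCl2, DTT and Na3VO4 and 1% DMSO, for 1 h at 25° C. Phospho-MBP was detected by anti-phospho-MBP and Sulfotag electrochemiluminescence; after blank subtraction, IC50 came from a sigmoidal fit of % inhibition.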
# T1 sequence (Q99558 whole entry): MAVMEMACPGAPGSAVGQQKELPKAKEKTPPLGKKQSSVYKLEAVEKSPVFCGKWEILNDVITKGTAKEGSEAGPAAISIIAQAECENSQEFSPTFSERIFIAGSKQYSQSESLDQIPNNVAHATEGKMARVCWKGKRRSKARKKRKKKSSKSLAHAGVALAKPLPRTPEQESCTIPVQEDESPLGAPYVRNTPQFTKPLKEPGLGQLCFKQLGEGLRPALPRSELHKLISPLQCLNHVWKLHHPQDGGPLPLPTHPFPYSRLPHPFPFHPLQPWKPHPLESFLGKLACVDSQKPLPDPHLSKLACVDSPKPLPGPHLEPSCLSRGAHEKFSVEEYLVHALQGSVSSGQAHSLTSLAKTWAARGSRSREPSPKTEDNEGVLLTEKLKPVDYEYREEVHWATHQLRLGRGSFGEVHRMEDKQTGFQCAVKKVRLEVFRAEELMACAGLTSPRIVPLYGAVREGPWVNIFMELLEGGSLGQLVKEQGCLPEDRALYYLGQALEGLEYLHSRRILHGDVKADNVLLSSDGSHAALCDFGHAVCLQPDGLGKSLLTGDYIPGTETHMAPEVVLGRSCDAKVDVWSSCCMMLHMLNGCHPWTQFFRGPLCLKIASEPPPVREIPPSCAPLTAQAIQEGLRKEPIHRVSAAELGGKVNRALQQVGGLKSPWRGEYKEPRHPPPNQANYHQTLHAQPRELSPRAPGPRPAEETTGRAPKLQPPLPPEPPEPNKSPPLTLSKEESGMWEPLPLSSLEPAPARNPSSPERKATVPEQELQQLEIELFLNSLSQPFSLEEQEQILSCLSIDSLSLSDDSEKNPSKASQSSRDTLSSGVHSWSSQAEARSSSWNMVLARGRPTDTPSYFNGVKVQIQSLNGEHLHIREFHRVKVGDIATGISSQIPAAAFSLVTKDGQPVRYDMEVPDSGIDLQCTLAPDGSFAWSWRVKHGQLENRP
Structure (SMILES),pIC50 [2],pIC50 [5],pIC50 [6],pEC50 [1],pEC50 [3],pEC50 [4]
CC(C)(O)C#Cc1cc2c(-c3ccnc(N)n3)cn(CC3CCNCC3)c2cn1 [Compound 114],5.42,6.72,6.80,5.26,5.80,5.82
CC(C)(O)C#Cc1cc2c(-c3ccnc(N)n3)cn(CCN3CC(=O)NC3=O)c2cn1 [Compound 116],5.28,6.77,6.92,< 5.00,5.25,4.96
CC(C)(O)C#Cc1cc2c(-c3ccnc(N)n3)cn(CCCN3CC(=O)NC3=O)c2cn1 [Compound 117],5.47,7.85,7.00,< 5.00,5.48,5.05
CC(C)n1cc(-c2nc(N)ncc2CCCN)c2cc(C#CC(C)(C)O)ncc21 [Compound 118],5.77,6.13,6.62,5.42,6.48,5.80

# These reach a higher pIC50 [2]. Values come first.
pIC50 [2],pIC50 [5],pIC50 [6],Structure (SMILES),pEC50 [1],pEC50 [3],pEC50 [4]
6.22,7.05,6.60,COCCNC(=O)c1c(-c2ccnc(N)n2)c2cc(C#CC(C)(C)O)ncc2n1C [Compound 69],4.80,5.74,6.06
7.29,6.89,7.55,CN1CC(n2cc(-c3nc(N)ncc3F)c3cc(C#CC(C)(C)O)ncc32)C1 [Compound 70],5.52,6.68,6.92
6.54,6.72,6.66,CC(C)(O)Cn1cc(-c2ccnc(N)n2)c2cc(C#CC(C)(O)C(F)(F)F)ncc21 (stereo not drawn) [Compound 111],5.12,6.19,5.89
6.85,7.77,8.20,Cc1cnc(N)nc1-c1c[nH]c2cnc(C#CC(C)(C)O)cc12 [Compound 112],4.85,6.36,5.89
6.18,7.42,7.28,CC(C)(O)C#Cc1cc2c(-c3ccnc(N)n3)cn(C3CNC3)c2cn1 [Compound 113],4.62,5.85,5.34
